Assay results published in patent US12564191B2, “Pesticidal compounds” (priority 2020, dated 2026).

Assays:
Assay type in all cases: in vivo
[1] = tested on: Silverleaf Whitefly (Bemisia argentifolih) (Adults); assay: Silverleaf whitefly adults on sprayed cotton plants; conditions: 300 ppm, 3 days after treatment
Source text: B.3 Silverleaf Whitefly (Bemisia argentifolih) (Adults)
(§1) The active compounds were formulated in cyclohexanone as a 10,000 ppm solution supplied in tubes. The tubes were inserted into an automated electrostatic sprayer equipped with an atomizing nozzle and they served as stock solutions for which lower dilutions were made in 50% acetone:50% water (v/v). A non-ionic surfactant (Kinetic®) was included in the solution at a volume of 0.01% (v/v).
Cotton plants at the cotyledon stage (one plant per pot) were sprayed by an automated electrostatic plant sprayer equipped with an atomizing spray nozzle. The plants were dried in the sprayer fume hood and then removed from the sprayer. Each pot was placed into a plastic cup and about 10 to 12 whitefly adults (approximately 3-5 days old) were introduced. The insects were collected using an aspirator and a nontoxic Tygon® tubing connected to a barrier pipette tip. The tip, containing the collected insects, was then gently inserted into the soil containing the treated plant, allowing insects to crawl out of the tip to reach the foliage for feeding. Cups were covered with a reusable screened lid. […] Mortality was assessed 3 days after treatment, compared to untreated control plants.

[2] = tested on: Tobacco budworm (Heliothis virescens); assay: Tobacco budworm (Heliothis virescens) microtiter diet test, egg and larval mortality; conditions: 120 h, sprayed onto insect diet, assessed after 5 days, read-out: egg and larval mortality in comparison with untreated controls
Method: B.5. Tobacco Budworm (Heliothis virescens)
For evaluating control of tobacco budworm (Heliothis virescens) the test unit consisted of 96-well-microtiter plates containing an insect diet and 15-25 H. virescens eggs.
The compounds were formulated using a solution containing 75% v/v water and 25% v/v DMSO. Different concentrations of formulated compounds were sprayed onto the insect diet at 10 μl, using a custom built micro atomizer, at two replications.
After application, microtiter plates were incubated at about 28±1° C. and about 80±5% relative humidity for 5 days. Egg and larval mortality was then visually assessed.

[3] = tested on: Yellow fever mosquito (Aedes aegypti); assay: whole plant or invertebrate; conditions: 48 h, freshly hatched larvae in tap water, assessed after 2 days, read-out: larval mortality in comparison with untreated controls
Method: B.6. Yellow Fever Mosquito (Aedes aegypti)
For evaluating control of yellow fever mosquito (Aedes aegypti) the test unit consisted of 96-well-microtiter plates containing 200 μl of tap water per well and 5-15 freshly hatched A. aegypti larvae. The active compounds were formulated using a solution containing 75% (v/v) water and 25% (v/v) DMSO. Different concentrations of formulated compounds or mixtures were sprayed onto the insect diet at 2.5 μl, using a custom built micro atomizer, at two replications.
After application, microtiter plates were incubated at 28+1° C., 80+5% RH for 2 days. Larval mortality was then visually assessed.

[4] = tested on: Orchid thrips (Dichromothrips corbetti); assay: Orchid thrips (Dichromothrips corbetti) floral-immersion test; conditions: adult thrips, 72 hours after treatment, read-out: mortality in comparison with untreated controls
Method: B.7. Orchid Thrips (Dichromothrips corbetti)
Dichromothrips corbetti adults used for bioassay were obtained from a colony maintained continuously under laboratory conditions. For testing purposes, the test compound is diluted in a 1:1 mixture of acetone:water (vol:vol), plus Kinetic® HV at a rate of 0.01% v/v.
Thrips potency of each compound was evaluated by using a floral-immersion technique. All petals of individual, intact orchid flowers were dipped into treatment solution and allowed to dry in Petri dishes. Treated petals were placed into individual re-sealable plastic along with about 20 adult thrips. All test arenas were held under continuous light and a temperature of about 28° C. for duration of the assay. After 3 days, the numbers of live thrips were counted on each petal. The percent mortality was recorded 72 hours after treatment.

[5] = tested on: Southern Armyworm (Spodoptera eridania), 2nd Instar Larvae; assay: Southern armyworm 2nd instar larvae on sprayed lima bean plants; conditions: 96 h, 4 days after treatment, read-out: mortality in comparison with untreated controls
Method: B.4. Southern Armyworm (Spodoptera eridania), 2nd Instar Larvae
as §1, with “nonionic” for “non-ionic”
Lima bean plants (variety Sieva) were grown 2 plants to a pot and selected for treatment at the 1st true leaf stage. Test solutions were sprayed onto the foliage by an automated electrostatic plant sprayer equipped with an atomizing spray nozzle. The plants were dried in the sprayer fume hood and then removed from the sprayer. Each pot was placed into perforated plastic bags with a zip closure. About 10 to 11 armyworm larvae were placed into the bag and the bags zipped closed. Test plants were maintained in a growth room at about 25° C. and about 20-40% relative humidity for 4 days, avoiding direct exposure to fluorescent light (24 hour photoperiod) to prevent trapping of heat inside the bags. Mortality and reduced feeding were assessed 4 days after treatment, compared to untreated control plants.

[6] = tested on: Diamond back moth (Plutella xylostella); assay: Diamond back moth (Plutella xylostella) cabbage leaf dip test; conditions: foliar, 3rd instar larvae, 72 hours after treatment, read-out: mortality in comparison with untreated controls
Method: B.2. Diamond Back Moth (Plutella xylostella)
The active compound is dissolved at the desired concentration in a mixture of 1:1 (vol:vol) distilled water:acetone. Surfactant (Alkamuls® EL 620) is added at a rate of 0.1% (vol/vol). The test solution is prepared at the day of use.
Leaves of cabbage were dipped in test solution and air-dried. Treated leaves were placed in petri dish enlined with moist filter paper and inoculated with ten 3rd instar larvae. Mortality was recorded 72 hours after treatment. Feeding damages were also recorded using a scale of 0-100%.

[7] = tested on: Western flower thrips (Frankliniella occidentalis); assay: Western flower thrips (Frankliniella occidentalis) cotton leaf disc test; conditions: foliar, 48 h, treated cotton leaf discs, 2 DAT, read-out: mortality in comparison with untreated controls
Method: B.9. Western Flower Thrips (Frankliniella occidentalis)
The active compounds were formulated by a Tecan liquid handler in 100% cyclohexanone as a 10,000 ppm solution supplied in tubes. The 10,000 ppm solution was serially diluted in 100% cyclohexanone to make interim solutions. These served as stock solutions for which final dilutions were made by the Tecan in 50% acetone:50% water (v/v) into 10 or 20 ml glass vials. A nonionic surfactant (Kinetic®) was included in the solution at a volume of 0.01% (v/v). The vials were then inserted into an automated electrostatic sprayer equipped with an atomizing nozzle for application to plants/insects.
Small (˜2″ in height) cotton plants are sprayed with test compounds at concentrations ranging from 300 to 0.01 ppm in acetone/water through the automated VPS. After drying, cotton leaves are removed and circular leaf discs (˜1 cm diameter) are punched from the treated surface and transferred to clean 20 mL scintillation vials. Ten Western flower thrips (FRANOC) are aspirated into each scintillation vial. The vials with the leaf discs and thrips are kept in an upright incubator at 25° C. and 50% relative humidity with a 14:10 light:dark photoperiod. Each treatment is replicated twice.
Thrips mortality is assessed at 2 DAT (days after treatment), counting all thrips both dead and alive. [The average absolute mortality is calculated for each treatment.]

With `CC(C)c1ccccc1NC(=S)NN=Cc1ccc(-c2cc(C(=N)Nc3ccc(OC(F)(F)F)cc3)ncn2)cc1` [Example C-25] the “mortality in comparison with untreated controls” value [1] was “over 75%”.
In the case of `Cc1ccc(C(C)C)c(N2C(=O)CS/C2=N\N=C\c2ccc(-c3nccc(NC(=O)c4ccc(C(F)(F)F)cc4)n3)cc2)c1` [Example C-5, N-[2-[4-[(E)-[(Z)-[3-(2-isopropyl-5-methyl-phenyl)-4-oxo-thiazolidin-2-ylidene]hydrazono]methyl]phenyl]pyrimidin-4-yl]-4-(trifluoromethyl)benzamide], the mortality at 2500 ppm [2] is reported as > 75% and the mortality at 2500 ppm [3] is reported as > 75%.
`CC(C)c1ccccc1/N=C1\SCC(=O)N1/N=C/c1ccc(-c2cc(NC(=O)c3ccc(OC(F)(F)F)cc3)ncn2)cc1` [Example C-12, N-[6-[4-[(E)-[(2Z)-2-(2-isopropylphenyl)imino-4-oxo-thiazolidin-3-yl]iminomethyl]phenyl]pyrimidin-4-yl]-4-(trifluoromethoxy)benzamide] was tested, and the mortality at 2500 ppm [2] was > 75%, the mortality at 500 ppm [4] was > 75% and the mortality at 500 ppm [5] was > 75%. The mortality at 500 ppm [6] was > 75% and the mortality at 300 ppm [7] was > 75%.
`CO[C@@H]1[C@@H](OC)[C@H](C)O[C@@H](O/N=C/c2ccc(-c3cc(NC(=O)c4ccc(OC(F)(F)F)cc4)ncn3)cc2)[C@@H]1OC` [Example C-13, 4-(trifluoromethoxy)-N-[6-[4-[(E)-[(2S,3R,4R,5S,6S)-3,4,5-trimethoxy-6-methyl-tetrahydropyran-2-yl]oxyiminomethyl]phenyl]pyrimidin-4-yl]benzamide] was tested, and the mortality at 2500 ppm [2] was > 75%.
